Laboratory results published in patent US5066664A, “2-(hydroxy-2-alkylphenylamino)-oxazolines and thiazolines as anti-glaucoma and vasoconstrictive agents” (Allergan, Inc., priority 1990, dated 1991).
Counter-ions that a name gives are not always drawn. Like-named read-outs stand apart in the source and are kept apart here.

Key:
[1] = molecular target: alpha 1 adrenergic receptors; conditions: control substance; Shayes and Green, J. Pharmacol. Exp. Ther. 1971, Vol 180, pp 317-325; cited from earlier work
[2] = tested on: alpha 1 adrenergic receptors; assay: Rabbit Aorta: Alpha 1 adrenergic receptor assay (isolated thoracic aorta rings, tension); conditions: 37° C., cumulative addition
[3] = tested on: New Zealand white rabbit eyes; assay: Intraocular pressure (anti-glaucoma) assay in unanesthetized rabbits, topical unilateral administration; assay type: in vivo; conditions: for Maximum Difference in Intraocular Pressure After Solution Administration, Ipsilateral (Treated) Eye: 0.1% (W/V) in distilled water, single 50 microliter drop topically to one eye; for Maximum Difference in Intraocular Pressure After Solution Administration, Contralateral (Untreated) Eye: single 50 microliter drop to the other eye, contralateral (untreated) eye received saline
Method: The anti-glaucoma activity (ability to maintain or reduce intraocular pressure) of the compounds of the present invention was confirmed by the following assay procedure. This assay procedure is generally recognized in the art to provide pertinent information with respect to the anti-glaucomaactivity of the formulations assayed. Thus, each of the compounds of the invention to be tested was dissolved in distilled water at a concentration of 0.1% (W/V). Each of these solutions was administered topically and unilaterally to one eye of a drug-naive, unanesthetized New Zealand white rabbit in a single 50 microliter drop. The contralateral eye received an equal volume of saline prior to determining the intraocular pressure after the mixture was administered. Also, approximately 10 microliters of 0.5% (W/V) proparacine (topical anesthetic) was applied to the corneas of each of the rabbits before determining intraocular pressure. As a control test, six (6) other drug-naive, unanesthetized New Zealand white rabbits were treated and tested as described above except that no compound of the invention was included in the solutions administered to the eyes.
The intraocular pressure was determined in both eyes of each rabbit both before and after the solutions were administered. Such intraocular pressure determinations were made in the conventional manner using conventional equipment.

SMILES | EC50 [1] | EC50 [2] | Maximum Difference in Intraocular Pressure After Solution Administration, Ipsilateral (Treated) Eye [3] | Maximum Difference in Intraocular Pressure After Solution Administration, Contralateral (Untreated) Eye ([3]; 0.1% (W/V)) | reduction of intraocular pressure in the contralateral eye compared with the ipsilateral eye ([3]; result in words, New Zealand white rabbit, 0.1% (W/V))
CNC[C@H](O)c1cccc(O)c1 [L-phenylephrine] | 0.182 µM | – | – | – | –
Cc1c(O)cccc1NC1=NCCO1 [Compound 1, 2-(3-Hydroxy-2-methylphenylamino)-Oxazoline, hydrochloride] | – | 0.602 ± 0.108 µM | -3.3 ± 1.0 mm Hg | -7.3 ± 1.0 mm Hg | the reduction in the contralateral eye is greater than in the ipsilateral eye
Cc1c(O)ccc(NC2=NCCO2)c1C.Cl [Compound 2, 2-(2,3-Dimethyl-4-hydroxyphenylamino)-oxazoline, hydrochloride] | – | 0.0199 ± 0.0156 µM | -3.9 ± 1.9 mm Hg | -3.3 ± 0.5 mm Hg | –
